# In patent US20240156861A1, “Cisplatin particles and uses thereof” (CRITITECH, INC., priority 2022, published 2024):
# Values joined by “and” are separate entries in the source; they are usually repeats but may differ in a detail not shown here. Identical values can stand only once.
# Legend:
# [1] = Blood platinum concentrations and PK parameters by ICP-MS in H69 xenograft mice; format: in vivo, female athymic nude mice
# Method: (§1) A total of 130 female athymic nude mice bearing the H69 human lung carcinoma xenograft were assigned to 10 treatment groups. Group 1 (N=5 females) served as the no treatment control. All intratumoral (IT) injections were delivered as single 25 μL injections. […] The maximum concentration of cisplatin solution and LSAM-Cisplatin suspension is 1 mg/mL and 10 mg/mL, respectively. The IT maximum feasible dose (MFD) for cisplatin solution is 25 μg and 250 μg for LSAM-Cisplatin suspension. Group 2 (N=10 females) was administered 47.5% ethanol/47.5% glycerin/5% water IT on Study Days 1 and 16 and served as control. Group 3 (N=20 females) received 133 μg cisplatin intraperitoneal (IP), considered the standard of care (SOC), once weekly for 3 cycles (Days 1, 8, and 15. Group 4 (N=5) was administered a single 125 μg large surface area microparticle (LSAM)-Cisplatin IT injection on Day 1. Group 5 (N=5 females) received a single 187.5 μg LSAM-Cisplatin IT injection on Day 1. Group 6 (N=5 females) was administered a single 250 μg LSAM-Cisplatin IT injection on Day 1. Group 7 (N=20 females) received single 25 μg cisplatin IT injections on Days 1 and 16. Group 8 (N=20 females) received single 125 μg LSAM-Cisplatin IT injections on Days 1 and 16. Group 9 (N=20 females) received single 187.5 μg LSAM-Cisplatin IT injections on Days 1 and 16. Group 10 (N=20 females) received single 250 μg LSAM-Cisplatin IT injections on Days 1 and 16. One hour postdose on Day 1, blood and tumor tissue were collected for determination of platinum concentrations from 3 Group 2 females and 5 females from Groups 3 and 7-10. On Days 8, 16 (predose) and 28, blood and tumor tissue were collected for determination of platinum concentrations from 5 females/Study Day from Groups 3 and 7-10. Total platinum concentrations in blood and tumor tissues were determined by inductively coupled plasma mass spectrometry (ICP-MS).
# (§2) The LSAM-Cisplatin pharmacology study was conducted to: • Quantitate platinum content in whole blood and tumors to animals administered cisplatin IP (standard of care, SOC), the MFD of IT cisplatin, and IT LSAM- Cisplatin at the maximum feasible dose (MFD) and two lower doses • Evaluate tumor response • Evaluate increased doses of IT LSAM-Cisplatin up to 2X systemic maximum tolerated dose (MTD) • Evaluate one vs two injections • Evaluate recurrences if tumors regressed
# (§3) Blood and tumor-site tissue were collected from each treatment group according to Table 4.
# (§4) All blood and tumor-site tissue platinum concentrations that were reported as BLQ were considered as zero for statistical purposes. Mean and standard deviation are the only statistics reported for blood and tumor-site tissue platinum concentrations and platinum blood to tumor tissue ratios. Composite maximum observed concentration (Cmax), time of Cmax (Tmax), and area under the concentration-time curve (AUC) values for platinum in blood and tumor tissue following single and repeated administration of cisplatin or LSAM-Cisplatin are reported.
# [2] = test system: H69 human lung carcinoma xenograft; test: Tumor-site tissue platinum concentrations and PK parameters by ICP-MS in H69 xenograft mice; format: in vivo, female athymic nude mice; settings: Group 3: 6 mg/kg IP on Days 1, 8, 15;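 further: unit μg/g tissue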
# Method: as §1, §2, §3, §4
# [3] = multiple doses, 6 mg/kg IP on Days 1, 8, and 15
# [4] = multiple doses, ~1.1 mg/kg IT on Days 1 and 16
# [5] = single dose Day 1, ~1.1 mg/kg IT
smiles,measurement,setting,value
N.N.[Cl][Pt][Cl] [Cisplatin],"Day 28 blood platinum concentrations, IP versus IT",[1]; 6 mg/kg IP (SOC) versus ~1.1 mg/kg IT Days 1 and 16,higher
same,Mean Blood Platinum Concentrations,"[1]; Group 3: 6 mg/kg IP on Days 1, 8, 15, Day 1 (1 hour postdose)",793 ng/mL
same,Individual Blood Platinum Concentrations,"[1]; Group 3: 6 mg/kg IP on Days 1, 8, 15, Day 1 (1 hour postdose), 6 mg/kg",977 ng/mL and 221 ng/mL and 891 ng/mL and 1040 ng/mL and 838 ng/mL
same,Mean Blood Platinum Concentrations,"[1]; Group 3: 6 mg/kg IP on Days 1, 8, 15, Day 8 (pre-dose)",368 ng/mL
same,Individual Blood Platinum Concentrations,"[1]; Group 3: 6 mg/kg IP on Days 1, 8, 15, Day 8 (pre-dose), 6 mg/kg",441 ng/mL and 304 ng/mL and 428 ng/mL and 241 ng/mL and 426 ng/mL
same,Mean Blood Platinum Concentrations,"[1]; Group 3: 6 mg/kg IP on Days 1, 8, 15, Day 16",1180 ng/mL
same,Individual Blood Platinum Concentrations,"[1]; Group 3: 6 mg/kg IP on Days 1, 8, 15, Day 16, 6 mg/kg",884 ng/mL and 1310 ng/mL and 1270 ng/mL and 1110 ng/mL and 1330 ng/mL
same,Mean Blood Platinum Concentrations,"[1]; Group 3: 6 mg/kg IP on Days 1, 8, 15, Day 28",396 ng/mL
same,Individual Blood Platinum Concentrations,"[1]; Group 3: 6 mg/kg IP on Days 1, 8, 15, Day 28, 6 mg/kg",493 ng/mL and 472 ng/mL and 363 ng/mL and 188 ng/mL and 465 ng/mL
same,Mean Blood Platinum Concentrations,"[1]; Group 7: ~1.1 mg/kg IT on Days 1 and 16, Day 1 (1 hour postdose)",189 ng/mL
same,Individual Blood Platinum Concentrations,"[1]; Group 7: ~1.1 mg/kg IT on Days 1 and 16, Day 1 (1 hour postdose), 1.1 mg/kg",160 ng/mL and 242 ng/mL and 181 ng/mL and 193 ng/mL and 171 ng/mL
same,Mean Blood Platinum Concentrations,"[1]; Group 7: ~1.1 mg/kg IT on Days 1 and 16, Day 8",57.6 ng/mL
same,Individual Blood Platinum Concentrations,"[1]; Group 7: ~1.1 mg/kg IT on Days 1 and 16, Day 8, 1.1 mg/kg",69.9 ng/mL and BLQ (below the limit of quantitation (<50 ng/mL) and treated as zero for statistical purposes) and 86.7 ng/mL and 79 ng/mL and 52.6 ng/mL
same,Mean Blood Platinum Concentrations,"[1]; Group 7: ~1.1 mg/kg IT on Days 1 and 16, Day 16 (predose)",11.4 ng/mL
same,Individual Blood Platinum Concentrations,"[1]; Group 7: ~1.1 mg/kg IT on Days 1 and 16, Day 16 (predose), 1.1 mg/kg",BLQ (below the limit of quantitation (<50 ng/mL) and treated as zero for statistical purposes) (4×) and 56.8 ng/mL
same,Mean Blood Platinum Concentrations,"[1]; Group 7: ~1.1 mg/kg IT on Days 1 and 16, Day 28",61.1 ng/mL
same,Individual Blood Platinum Concentrations,"[1]; Group 7: ~1.1 mg/kg IT on Days 1 and 16, Day 28, 1.1 mg/kg",68.1 ng/mL and 68.3 ng/mL and 57.8 ng/mL and 57.4 ng/mL and 53.8 ng/mL
same,Blood Platinum AUC0-t,[1]; [3],"486,824 ng · hr/mL"
same,Blood Platinum Cmax,[1]; [3],1180 ng/mL
same,Blood Platinum Tmax,[1]; [3],384 h
same,Blood Platinum AUC0-t,[1]; [4],"40,709 ng · hr/mL"
same,Blood Platinum Cmax,[1]; [4],189 ng/mL
same,Blood Platinum Tmax,[1]; [4],1 h
same,Blood Platinum AUC0-192,"[1]; single dose Day 1, 6 mg/kg IP","111,272 ng · hr/mL"
same,Blood Platinum Cmax,"[1]; single dose Day 1, 6 mg/kg IP",793 ng/mL
same,Blood Platinum Tmax,"[1]; single dose Day 1, 6 mg/kg IP",1 h
same,Blood Platinum AUC0-192,[1]; [5],"23,645 ng · hr/mL"
same,Blood Platinum AUC0-384,[1]; [5],"30,269 ng · hr/mL"
same,Blood Platinum Cmax,[1]; [5],189 ng/mL
same,Blood Platinum Tmax,[1]; [5],1 h
same,Mean Tumor-Site Tissue Platinum Concentrations,[2]; Day 1 (1 hour postdose),0.734 µg/g
same,Individual Tumor-Site Tissue Platinum Concentrations,"[2]; Day 1 (1 hour postdose), 6 mg/kg",0.901 μg/g and BLQ (below the limit of quantitation (<0.650 μg/g) and treated as zero for statistical purposes) and 1.15 μg/g and 0.777 μg/g and 0.843 μg/g
same,Individual Tumor-Site Tissue Platinum Concentrations,[2]; Day 8 (pre-dose),BLQ (below the limit of quantitation (<0.650 μg/g) and treated as zero for statistical purposes)
same,Mean Tumor-Site Tissue Platinum Concentrations,"[2]; Day 8 (pre-dose), BLQ treated as zero",0.00 µg/g
same,Mean Tumor-Site Tissue Platinum Concentrations,[2]; Day 16,1.39 µg/g
